Measured values from BindingDB's records for doi:10.1016/j.bioorg.2016.05.009 (Birla Institute of Technology, 2016).
pIC50: −log10 of the molar value.

These molecules were tested against Gag-Pol polyprotein (Human immunodeficiency virus type 1 group M subtype B (isolate HXB2), UniProt P04585) (assay: HIV-1 RT Colorimetric Assay).
Experimental: The reaction mixture was set with template primer complex, RT enzyme and dNTPs in a lysis buffer with or without inhibitors. The reaction mixture was incubated at 37 °C for 1 h and then transferred to streptavidin-coated microtitre plate (MTP). The biotin-labeled dNTPs that were incorporated in the template due to activity ofRT, bound to streptavidin. The unbound dNTPs were washed using wash buffer and anti-DIG-POD was added to the MTP. The DIGlabeled dNTPs incorporated in the template were bound to an anti-DIG-POD antibody. The unbound anti-DIG-POD was washed again with washing buffer and the peroxide substrate (ABST) was added to the MTP. A colored reaction product was produced during the cleavage of the substrate catalyzed by a peroxide enzyme. The absorbance of the sample was determined as an optical density (OD) at 405 nm using a micro titer plate ELISA reader.

First: COc1ccc2c(c1)CCCN2CCC(=O)N1CCN(c2ccccc2C)CC1 [3-(6-methoxy-3,4-dihydroquinolin-1(2H)-yl)-1-(4-o-tolylpiperazin-1-yl)propan-1-one (6b)]
Second: COc1ccc2c(c1)CCCN2CCC(=O)N1CCN(c2ccccc2Cl)CC1 [1-(4-(2-chlorophenyl)piperazin-1-yl)-3-(6-methoxy-3,4-dihydroquinolin-1(2H)-yl)propan-1-one (6i)]
The pIC50 of the first is 0.42 log units higher: 4.90 for the first, 4.48 for the second.

Compared with `COc1ccc2c(c1)CCCN2CCC(=O)N1CCN(c2cccc(Cl)c2)CC1` [1-(4-(3-chlorophenyl)piperazin-1-yl)-3-(6-methoxy-3,4-dihydroquinolin-1(2H)-yl)propan-1-one (6j)], `COc1cccc(N2CCN(C(=O)CCN3CCCc4cc(OC)ccc43)CC2)c1` [3-(6-methoxy-3,4-dihydroquinolin-1(2H)-yl)-1-(4-(3-methoxyphenyl)piperazin-1-yl)propan-1-one (6e)] is 0.50 log units lower in pIC50: 4.73 for the first, 4.23 for the second.

`COc1ccc2c(c1)CCCN2CCC(=O)N1CCN(c2ccccc2OC)CC1` [3-(6-methoxy-3,4-dihydroquinolin-1(2H)-yl)-1-(4-(2-methoxyphenyl)piperazin-1-yl)propan-1-one (6d)] and `COc1ccc2c(c1)CCCN2CCC(=O)N1CCN(c2ccccc2F)CC1` [1-(4-(2-fluorophenyl)piperazin-1-yl)-3-(6-methoxy-3,4-dihydroquinolin-1(2H)-yl)propan-1-one (6g)] are within 0.2 log units of each other in pIC50: 4.28 for the first, 4.32 for the second.

First: COc1ccc2c(c1)CCCN2CCC(=O)N1CCN(c2ccc(F)cc2)CC1 [1-(4-(4-fluorophenyl)piperazin-1-yl)-3-(6-methoxy-3,4-dihydroquinolin-1(2H)-yl)propan-1-one (6h)]
Second: COc1ccc2c(c1)CCCN2CCC(=O)N1CCN(c2ccc(Cl)cc2)CC1 [1-(4-(4-chlorophenyl)piperazin-1-yl)-3-(6-methoxy-3,4-dihydroquinolin-1(2H)-yl)propan-1-one (6k)]
The pIC50 of the first is 0.49 log units lower: 4.11 for the first, 4.60 for the second.

Going from `COc1ccc2c(c1)CCCN2CCC(=O)N1CCN(c2ccccn2)CC1` [3-(6-methoxy-3,4-dihydroquinolin-1(2H)-yl)-1-(4-(pyridin-2-yl)piperazin-1-yl)propan-1-one (6n)] to `COc1ccc2c(c1)CCCN2CCC(=O)N1CCN(c2ccccc2)CC1` [3-(6-methoxy-3,4-dihydroquinolin-1(2H)-yl)-1-(4-phenylpiperazin-1-yl)propan-1-one (6a)], the pIC50 rises from 4.31 to 4.62 (0.31 log units).

Going from `COc1ccc2c(c1)CCCN2CCC(=O)N1CCN(c2ccc([N+](=O)[O-])cc2)CC1` [3-(6-methoxy-3,4-dihydroquinolin-1(2H)-yl)-1-(4-(4-nitrophenyl)piperazin-1-yl)propan-1-one (6l)] to `COc1ccc2c(c1)CCCN2CCC(=O)N1CCN(c2ccc(C)cc2)CC1` [3-(6-methoxy-3,4-dihydroquinolin-1(2H)-yl)-1-(4-p-tolylpiperazin-1-yl)propan-1-one (6c)], the pIC50 rises from 4.08 to 4.55 (0.47 log units). The second is the more potent here.

First: COc1ccc2c(c1)CCCN2CCC(=O)N1CCN(c2cccc(Cl)c2Cl)CC1 [1-(4-(2,3-dichlorophenyl)piperazin-1-yl)-3-(6-methoxy-3,4-dihydroquinolin-1(2H)-yl)propan-1-one (6o)]
Second: COc1ccc(N2CCN(C(=O)CCN3CCCc4cc(OC)ccc43)CC2)cc1 [3-(6-methoxy-3,4-dihydroquinolin-1(2H)-yl)-1-(4-(4-methoxyphenyl)piperazin-1-yl)propan-1-one (6f)]
The pIC50 of the first is higher: 4.84 for the first, under 4.00 for the second. The first is the more potent here.

Molecule `COc1ccc2c(c1)CCCN2CCC(=O)N1CCN(Cc2ccccc2)CC1` [1-(4-benzylpiperazin-1-yl)-3-(6-methoxy-3,4-dihydroquinolin-1(2H)-yl)propan-1-one (6m)] has a pIC50 of under 4.00.
